Where a SMILES comes first, the peptide text is derived from it. Bridges are numbered along the chain shown (N, C = ends). [ ]: non-standard residue; d: D form. Tle = CC(C)(C)[C@H](N)C(=O)O; dDab = NCC[C@@H](N)C(=O)O; Orn = NCCC[C@H](N)C(=O)O; Dab = NCC[C@H](N)C(=O)O; Dap = NC[C@H](N)C(=O)O
What was measured:
[1] = system: Acinetobacter baumannii DSM 30008; format: cell-based; details: DSM 30008
Method in brief: (§1)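 Peptide MICs were determined by NCCLS broth microdilution in cation-adjusted Mueller-Hinton II broth. Inoculum was about 10^6 CFU/mL, matched to 0.5 McFarland, with peptides in two-fold serial dilutions. The broth contained Polysorbate 80 at 0.002% final concentration.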

[2] = system: Escherichia coli ATCC 25922; format: cell-based; details: ATCC 25922
Method in brief: as §1

[3] = system: Klebsiella pneumoniae ATCC 13883; format: cell-based; details: ATCC 13883
Method in brief: as §1

[4] = system: human red blood cells (hRBC); assay: Hemolysis: hemolytic activity at 100 μg/mL, 1 h at 37° C.; details: red cells of human, 1 h, 100
Method in brief: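 Peptides at 100 μg/mL incubated with washed 20% (v/v) human erythrocytes (~0.9×10^9 cells/mL) for 1 h at 37 °C with shaking. Released hemoglobin read at OD 540 nm in supernatant; 0% and 100% lysis from PBS/0.001% acetic acid and 2.5% Triton X-100.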

Acinetobacter baumannii DSM 30008 MIC [1]	Escherichia coli ATCC 25922 MIC [2]	Klebsiella pneumoniae ATCC 13883 MIC [3]	Structure (SMILES)	Hemolysis at 100 μg/mL [4]
1.5 µg/mL	1.5 µg/mL	1 µg/mL	CC(C)C[C@@H]1NC(=O)[C@H](CCCNC(=N)N)NC(=O)[C@@H](CCN)NC(=O)[C@H]([C@@H](C)O)NC(=O)[C@@H]2CCNC(=O)C[C@H](NC1=O)C(=O)N[C@@H](Cc1ccc(O)cc1)C(=O)N[C@@H](CC(N)=O)C(=O)N[C@@H](CCCN)C(=O)N[C@H](CCN)C(=O)N[C@@H](CCN)C(=O)N[C@@H](Cc1c[nH]c3ccccc13)C(=O)N[C@@H](CO)C(=O)N[C@@H](C(C)(C)C)C(=O)N2 [Example 75, cyclo(-Leu-Asp-Tyr-Asn-Orn-^DDab-Dab-Trp-Ser-tBuGly-Dab-Thr-^DDab-Arg-)] (cyclo(LDYN[Orn][dDab][Dab]WS[Tle][Dab]T[dDab]R); lactam 2-11)	1%
1 µg/mL	0.5 µg/mL	0.5 µg/mL	CC(C)[C@@H]1NC(=O)[C@@H]2CCCN2C(=O)[C@@H]([C@H](C)O)NC(=O)[C@H]([C@@H](C)O)NC(=O)[C@@H]2CC(=O)NCC[C@H](NC1=O)C(=O)N[C@@H](Cc1ccc(O)cc1)C(=O)N[C@@H](CCN)C(=O)N[C@@H](CN)C(=O)N[C@H](CCN)C(=O)N[C@@H](CCN)C(=O)N[C@@H](Cc1c[nH]c3ccccc13)C(=O)N[C@@H](CCN)C(=O)N[C@@H](C(C)(C)C)C(=O)N2 [Example 29, cyclo(-Val-Dab-Tyr-Dab-Dap-^DDab-Dab-Trp-Dab-tBuGly-Asp-Thr-^DThr-Pro-)] (cyclo(V[Dab]Y[Dab][Dap][dDab][Dab]W[Dab][Tle]DT[dT]P); lactam 2-11)	2%
1 µg/mL	0.5 µg/mL	0.25 µg/mL	CC(C)[C@@H]1NC(=O)[C@@H]2CCCN2C(=O)[C@@H](C)NC(=O)[C@H]([C@@H](C)O)NC(=O)[C@H](CO)NC(=O)[C@H](C(C)(C)C)NC(=O)[C@H](CCN)NC(=O)[C@H](Cc2c[nH]c3ccccc23)NC(=O)[C@H](CCN)NC(=O)[C@@H](CCN)NC(=O)[C@H](CN)NC(=O)[C@H](CCN)NC(=O)[C@H](Cc2ccc(O)cc2)NC(=O)[C@H](CN)NC1=O [Example 45, cyclo(-Val-Dap-Tyr-Dab-Dap-^DDab-Dab-Trp-Dab-tBuGly-Ser-Thr-^DAla-Pro-)] (cyclo([Dab][Dap][dDab][Dab]W[Dab][Tle]ST[dA]PV[Dap]Y))	4%

Structure (SMILES)	Acinetobacter baumannii DSM 30008 MIC [1]	Escherichia coli ATCC 25922 MIC [2]	Klebsiella pneumoniae ATCC 13883 MIC [3]	Hemolysis at 100 μg/mL [4]
CC(C)C[C@@H]1NC(=O)[C@H](CCCNC(=N)N)NC(=O)[C@@H](CCCNC(=N)N)NC(=O)[C@H](C(C)C)NC(=O)[C@@H]2CSSC[C@H](NC1=O)C(=O)N[C@@H](Cc1ccc(O)cc1)C(=O)N[C@@H](CC(N)=O)C(=O)N[C@@H](CCCN)C(=O)N[C@H](CCN)C(=O)N[C@@H](CCN)C(=O)N[C@@H](Cc1c[nH]c3ccccc13)C(=O)N[C@@H](CO)C(=O)N[C@@H](Cc1ccc(O)cc1)C(=O)N2 [Example 66, cyclo(-Leu-Cys-Tyr-Asn-Orn-^DDab-Dab-Trp-Ser-Tyr-Cys-Val-^DArg-Arg-)] (HELM PEPTIDE1{C.V.[dR].R.L.C.Y.N.[Orn].[NCC[C@@H](N[*:1])C(=O)[*:2]].[Dab].W.S.Y}$PEPTIDE1,PEPTIDE1,1:R3-6:R3|PEPTIDE1,PEPTIDE1,1:R1-14:R2$$$V2.0)	1.25 µg/mL	1 µg/mL	0.5 µg/mL	2%

— patent US11753446B2, “Beta-hairpin peptidomimetics” (POLYPHOR AG, priority 2014, dated 2023)
